The values below come from paper PMC4717123, “The cytochrome P450 CYP6P4 is responsible for the high pyrethroid resistance in knockdown resistance-free Anopheles arabiensis” (Insect Biochemistry and Molecular Biology, 2016).

Like-named read-outs stand apart in the source and are kept apart here.

In general, Km refers to the concentration of substrate that gives half-maximal velocity. One may read the IC50 as the midpoint of a concentration-inhibition curve. Usually kcat stands for the number of substrate molecules converted per active site and unit of time at saturation.

Data set [1] addresses T1, CYP6P4 (Anopheles arabiensis, UniProt A0A0M4KNY0).
T1 sequence (A0A0M4KNY0 1-506): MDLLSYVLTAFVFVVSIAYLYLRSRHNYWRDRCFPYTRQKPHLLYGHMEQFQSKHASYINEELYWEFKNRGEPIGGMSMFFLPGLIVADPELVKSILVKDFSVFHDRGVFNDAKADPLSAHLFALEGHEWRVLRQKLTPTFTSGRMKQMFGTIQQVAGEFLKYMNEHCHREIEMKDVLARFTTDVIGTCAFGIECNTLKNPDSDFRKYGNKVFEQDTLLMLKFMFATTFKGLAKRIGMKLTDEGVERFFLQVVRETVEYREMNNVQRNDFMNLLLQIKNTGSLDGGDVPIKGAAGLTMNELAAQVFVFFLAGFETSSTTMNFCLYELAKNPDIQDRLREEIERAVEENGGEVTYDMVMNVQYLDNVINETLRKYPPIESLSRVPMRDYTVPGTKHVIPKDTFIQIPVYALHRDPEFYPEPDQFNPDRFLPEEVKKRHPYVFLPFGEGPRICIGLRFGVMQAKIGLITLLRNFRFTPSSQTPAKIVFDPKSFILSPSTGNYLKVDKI
T1 sequence (Q86QH5 1-679 partner): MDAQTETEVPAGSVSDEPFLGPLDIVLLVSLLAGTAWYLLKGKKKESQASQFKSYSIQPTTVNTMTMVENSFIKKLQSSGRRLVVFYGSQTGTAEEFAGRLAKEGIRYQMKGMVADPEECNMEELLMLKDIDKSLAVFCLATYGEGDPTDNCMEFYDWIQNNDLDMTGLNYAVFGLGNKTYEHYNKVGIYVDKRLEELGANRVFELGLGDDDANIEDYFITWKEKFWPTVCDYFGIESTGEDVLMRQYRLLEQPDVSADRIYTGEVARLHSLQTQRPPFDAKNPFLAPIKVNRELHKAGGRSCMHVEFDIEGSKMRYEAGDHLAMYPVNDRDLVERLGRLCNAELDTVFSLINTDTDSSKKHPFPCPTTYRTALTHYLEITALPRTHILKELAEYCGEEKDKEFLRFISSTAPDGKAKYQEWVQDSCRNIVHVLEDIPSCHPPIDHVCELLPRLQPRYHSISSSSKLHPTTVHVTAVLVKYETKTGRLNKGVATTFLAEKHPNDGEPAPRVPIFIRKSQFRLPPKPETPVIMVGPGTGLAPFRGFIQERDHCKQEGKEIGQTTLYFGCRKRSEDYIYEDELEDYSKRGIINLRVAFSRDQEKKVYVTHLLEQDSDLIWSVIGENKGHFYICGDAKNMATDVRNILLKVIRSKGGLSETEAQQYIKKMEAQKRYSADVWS
Nature of the data set: In vitro metabolism assays with insecticides (percentage depletion, HPLC). In kind it is in vitro ADME. Particulars: for metabolised at 1 h, 20 µM: Anopheles arabiensis, recombinant cyp6p4. The protocol: 0.2 M Tris–HCl and NADPH-regeneration components were added to the bottom of 1.5 ml tube chilled on ice. Membranes expressing recombinant CYP6P4 and AgCPR (and reconstituted with cytochrome b5) were added to the side of the tube and pre-incubated for 5 min at 30 °C, with shaking at 1200 rpm. […] Reactions were quenched with 0.1 ml ice-cold methanol and incubated for 5 more minutes to precipitate protein. Tubes were then centrifuged at 16,000 rpm and 4 °C for 15 min, and 150 μl of supernatant transferred into HPLC vials for analysis. All reactions were carried out in triplicate with experimental samples (+NADPH) and negative controls (-NADPH). […] For the other insecticides, mobile phases were 65:35 (bendiocarb) and 60:40 v/v (propoxur and malathion) acetonitrile to water, respectively with column temperature of 40 °C for bendiocarb and propoxur. Bendiocarb and propoxur were detected at 205 nm and 270 nm respectively, whilst malathion was detected at 230 nm. Enzyme activity was calculated as percentage depletion (the difference in the amount of insecticide(s) remaining in the +NADPH tubes compared with the –NADPH) and a t-test used for statistical analysis.

In data set [2] the test system is An. arabiensis populations from Ndjamena. Also on record: method as in Witzig et al., 2013. Particulars: Chad, 2009, ref Witzig et al., 2013; cited from earlier work.
Data set [3] addresses T1, CYP6P4. Nature of the data set: Fluorogenic probes assay (O-dealkylation, DEF kinetics). In kind it is biochemical. Particulars: 0-2 μM diethoxyfluorescein, 2 pmol enzyme, 10 min. The protocol:
To find out whether there are differences in the degree of binding of recombinant CYP6P4 to different insecticides, membrane was also tested for O-dealkylation towards seven (7) fluorogenic probes: resorufin-based 7-ethoxyresurofin (7-ER), resurofin methyl ether (RME), resorufin-benzylether (RBE) and resorufin-pentylether (RPE); coumarin-based probes: 7-ethoxy-4-trifluoromethylcoumarin (7-EFC) and 7-methoxy-4-trifluoromethylcoumarin (MFC); and diethoxyfluorescein (DEF). […] Membranes were activated for 5 min at 37 °C in fluorescence spectrophotometer FLOUstar Omega (BMG LABTECH, Ortenberg, Germany) before 25 μl NADPH regeneration buffer (1 mM glucose-6-phosphate (G6P), 0.25 mM MgCl2, 0.1 mM NADP and 1 U/ml glucose-6-phosphate dehydrogenase (G6PDH) prepared in KPi (pH 7.4) was added. All reactions were conducted in three replicates with negative control (–NADPH) devoid of the regeneration buffer. Rate of fluorescent product formation for 7-ER, RBE and RME (ʎexc = 544 nm, ʎemi = 590 nm), 7-EFC and MFC (ʎexc = 410 nm, ʎemi = 535 nm) and DEF (ʎexc = 485 nm, ʎemi = 530 nm) was determined by linear regression of measurement between 2 and 10 min after start of the reaction.
For kinetics, 0–2 μM diethoxyfluorescein was assayed with 2 pmol of recombinant enzyme in a total volume of 250 μl. The protocol was as outlined above, with varying substrate concentration. […]

In data set [4] the target is T1, CYP6P4. Description: Inhibition assay of CYP6P4 metabolism of diethoxyfluorescein by insecticides. It is filed as biochemical. As to conditions: 0.11 μM DEF substrate, 2 pmol CYP6P4, inhibitor 25-0.011 μM, 30 °C. The protocol: To assess differences in the degree of binding of the recombinant CYP6P4 to insecticides from different classes, inhibition assay was conducted with DEF and nine insecticides (inhibitors). […] 25 μl of pre-warmed regeneration buffer (7.8 mg glucose-6-phosphate, 0.25 mM MgCl2, 1.7 mg NADP, 6 U/ml glucose-6-phosphate dehydrogenase and 2% w/v NaHCO3) was incorporated into the wells. Fluorescence was monitored for 21 cycles at interval of 1 min with shaking at every step, at 30 °C. Results were analysed with GraphPad Prism software and inhibition at each inhibitor concentration and incubation time calculated as residual control activity towards DEF.

Substrate in data set [5]: CC1(C)C(C=C(Cl)Cl)C1C(=O)OCc1cccc(Oc2ccccc2)c1
Description: purified protein, by the assay type. In kind it is biochemical, Anopheles arabiensis. As to conditions: other: permethrin 3-30 μM, 30 min, 22.5 pmol recombinant protein. The protocol:
Reactions were performed in triplicates both for + NADPH (experimental tubes) and –NADPH (negative control tubes). Km and Vmax were established from the plot of substrate concentrations against the initial velocities and fitting of the data to the Michaelis–Menten module using the least squares non-linear regression, as implemented in the GraphPad Prism 6.03 Software (GraphPad Inc., La Jolla, CA, USA).

The mark [6] stands for this setting: 20 μM insecticide, 1 h incubation, 30 °C, +NADPH vs -NADPH.

For `Cc1c(COC(=O)[C@@H]2[C@H](/C=C(\Cl)C(F)(F)F)C2(C)C)cccc1-c1ccccc1` (racemic) [bifenthrin], on CYP6P4 [1] (setting [6]), the Percentage depletion came to 49.2%.

For the molecule `CC1(C)[C@H](C(=O)O[C@H](C#N)c2cccc(Oc3ccccc3)c2)[C@@H]1/C=C(\Cl)C(F)(F)F` (racemic) [λ-cyhalothrin], the metabolised at 1 h, 20 µM at CYP6P4 [1] (setting [6]) is 57.8%.

With `Clc1ccc(C(c2ccc(Cl)cc2)C(Cl)(Cl)Cl)cc1` [DDT], the Percentage depletion entry on CYP6P4 [1] (20 μM DDT, 1 h, following addition of sodium cholate, p = 0.08, neither dicofol nor DDE detected) was “up to 20%”. The resistance/susceptibility status result in data set [2] was “resistant”.

For the molecule `CCOc1ccc2c(c1)Oc1cc(OCC)ccc1C21OC(=O)c2ccccc21` [DEF, diethoxyfluorescein], on CYP6P4 [3], the “Kcat (maximal catalytic activity)” value was 0.9775 s⁻¹ and the Km was found to be 0.11 µM.

In the case of `CNC(=O)Oc1cccc2c1OC(C)(C)O2` [bendiocarb], the Percentage depletion entry at CYP6P4 [1] (setting [6]) is “No activities”. Besides, the IC50 entry at CYP6P4 [4] was “high IC50 values”. The resistance/susceptibility status entry in data set [2] is “susceptible”.

Consider `CC1(C)[C@H](C(=O)O[C@H](C#N)c2cccc(Oc3ccccc3)c2)[C@@H]1C=C(Br)Br` [deltamethrin], for which the metabolised at 1 h, 20 µM at CYP6P4 [1] (setting [6]) was less than 2%. Further, the IC50 on CYP6P4 [4] (read-out: IC50) came to 2.52 µM. In addition, in data set [2], the mortality rate was 90%.

Turning to `ClC1=C(Cl)[C@]2(Cl)[C@@H]3[C@@H]4C[C@@H]([C@H]5O[C@@H]45)[C@@H]3[C@@]1(Cl)C2(Cl)Cl` [dieldrin], in data set [2], the resistance/susceptibility status result is “susceptible”.

`CCOc1ccc(C(C)(C)COCc2cccc(Oc3ccccc3)c2)cc1` [etofenprox]: the metabolised at 1 h, 20 µM on CYP6P4 [1] (setting [6]) came out at 24.9%.

In the case of `CCOC(=O)CC(SP(=S)(OC)OC)C(=O)OCC` (centres unmarked) [malathion], the Percentage depletion entry on CYP6P4 [1] (setting [6]) was “No activities”. For the same molecule, the half-inhibitory concentration (IC50) result against CYP6P4 [4] is “high IC50 values”. For the same molecule, in data set [2], the resistance/susceptibility status entry is listed as “susceptible”.

In the case of `CC1(C)C(C=C(Cl)Cl)C1C(=O)OCc1cccc(Oc2ccccc2)c1` (centres unmarked) [permethrin], the metabolised at 1 h, 20 µM at CYP6P4 [1] (setting [6]) stood at 70.5%. The IC50 on CYP6P4 [4] (read-out: IC50) was 0.97 µM.

Turning to `CNC(=O)Oc1ccccc1OC(C)C` [propoxur], the Percentage depletion result at CYP6P4 [1] (setting [6]) is “No activities”.

B1: recombinant CYP6P4 (Anopheles arabiensis) (protein)
chain: T1 sequence (A0A0M4KNY0 1-506)
Take B1: in data set [5], the Km was determined as 8.07 µM, the kcat was 0.054 s⁻¹ and the kcat/Km is listed as 0.4008 min^−1μM^−1.
